# Experimental data from ChEMBL document CHEMBL1201862, “PubChem BioAssay data set” (2004).
# The source made the active and inactive calls.
# Experiments:
# [1] = target: T1, Rac GTPase-activating protein 1 (Homo sapiens, UniProt Q9H0H5); assay: blockers of MgcRacGAP-driven Rac1 GTP hydrolysis – biochemical, ADP Hunter fluorescence, primary and confirmatory, confirmation (AID 624330); format: functional
# T1 sequence (Q9H0H5 whole entry): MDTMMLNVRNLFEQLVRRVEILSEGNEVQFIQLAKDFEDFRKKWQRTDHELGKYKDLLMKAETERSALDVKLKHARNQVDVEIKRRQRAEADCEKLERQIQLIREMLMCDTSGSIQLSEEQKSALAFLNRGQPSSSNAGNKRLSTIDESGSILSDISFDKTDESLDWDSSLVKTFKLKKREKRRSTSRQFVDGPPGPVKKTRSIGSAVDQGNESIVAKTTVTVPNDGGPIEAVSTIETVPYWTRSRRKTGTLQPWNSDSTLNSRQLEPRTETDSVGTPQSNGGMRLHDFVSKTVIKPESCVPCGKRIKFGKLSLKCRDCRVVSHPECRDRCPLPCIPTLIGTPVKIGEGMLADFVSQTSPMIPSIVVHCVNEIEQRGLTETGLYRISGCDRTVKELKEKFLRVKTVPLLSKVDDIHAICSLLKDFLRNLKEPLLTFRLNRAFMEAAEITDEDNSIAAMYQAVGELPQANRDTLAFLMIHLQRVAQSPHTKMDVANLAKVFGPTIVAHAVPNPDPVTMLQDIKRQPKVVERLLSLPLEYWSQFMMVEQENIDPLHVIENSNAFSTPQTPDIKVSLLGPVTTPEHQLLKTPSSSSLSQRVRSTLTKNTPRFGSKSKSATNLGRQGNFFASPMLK
# Insulin-degrading enzyme [2] = target: T2, Insulin-degrading enzyme (Homo sapiens, UniProt P14735); assay: cellular IDE activation of Abeta substrate cleavage – fluorescence polarization, HEK cells, dose response (AID 588439); format: functional, cell-based
# T2 sequence (P14735 whole entry): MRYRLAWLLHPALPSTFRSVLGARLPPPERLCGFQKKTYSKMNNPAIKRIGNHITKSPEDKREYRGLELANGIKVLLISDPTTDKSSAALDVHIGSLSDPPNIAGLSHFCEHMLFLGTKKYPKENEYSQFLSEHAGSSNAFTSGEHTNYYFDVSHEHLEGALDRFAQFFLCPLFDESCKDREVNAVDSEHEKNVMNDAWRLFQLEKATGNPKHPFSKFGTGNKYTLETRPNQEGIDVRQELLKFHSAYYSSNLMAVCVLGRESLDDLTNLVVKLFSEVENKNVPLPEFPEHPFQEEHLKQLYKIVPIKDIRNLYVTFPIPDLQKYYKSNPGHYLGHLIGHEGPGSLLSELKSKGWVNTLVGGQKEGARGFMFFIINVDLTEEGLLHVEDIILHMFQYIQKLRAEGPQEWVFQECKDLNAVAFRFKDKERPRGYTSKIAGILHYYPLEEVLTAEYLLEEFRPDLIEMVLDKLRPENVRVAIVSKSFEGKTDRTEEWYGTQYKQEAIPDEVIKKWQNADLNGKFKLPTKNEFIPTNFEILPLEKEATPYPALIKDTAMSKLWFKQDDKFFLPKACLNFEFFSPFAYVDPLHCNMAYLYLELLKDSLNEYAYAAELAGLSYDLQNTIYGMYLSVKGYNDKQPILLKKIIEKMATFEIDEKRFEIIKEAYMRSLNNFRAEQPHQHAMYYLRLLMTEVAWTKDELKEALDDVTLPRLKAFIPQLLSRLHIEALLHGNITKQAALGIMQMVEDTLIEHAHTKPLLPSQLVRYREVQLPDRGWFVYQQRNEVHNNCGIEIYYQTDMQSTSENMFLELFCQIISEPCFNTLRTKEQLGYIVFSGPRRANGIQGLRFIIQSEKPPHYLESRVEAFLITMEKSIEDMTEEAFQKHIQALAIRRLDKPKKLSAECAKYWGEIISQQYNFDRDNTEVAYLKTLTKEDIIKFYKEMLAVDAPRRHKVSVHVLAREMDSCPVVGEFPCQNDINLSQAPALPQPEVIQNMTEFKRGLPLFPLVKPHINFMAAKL
# Large T antigen = Large T antigen (Simian virus 40, UniProt P03070); format: functional, Betapolyomavirus macacae;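 note: Confirmatory-stage PubChem screen for compounds that inhibit SV40 T antigen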
# Beta Lactamase = Beta Lactamase (Pseudomonas aeruginosa, UniProt Q932Y6); assay: BLA reporter interference, concentration series – BLA reporter cells, FRET fluorescence, artefact control for TLR9-MyD88 binding inhibitor project, dose response (AID 588341); format: cell-based;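 note: cell based assay in CHO-K1 cells stably expressing beta-lactamase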
# ORF 73 = target: T3, ORF 73 (Human herpesvirus 8, UniProt O40947); assay: KSHV LANA DNA-binding disruption – biochemical, fluorescence polarization, cherry-picked samples, dose response (AID 504725); parameters: species or system Human gammaherpesvirus 8;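 note: fluorescence polarization of a labeled DNA duplex reporting LANA DNA binding; potency is for inhibitors that block LANA binding to the DNA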
# T3 sequence (O40947 whole entry): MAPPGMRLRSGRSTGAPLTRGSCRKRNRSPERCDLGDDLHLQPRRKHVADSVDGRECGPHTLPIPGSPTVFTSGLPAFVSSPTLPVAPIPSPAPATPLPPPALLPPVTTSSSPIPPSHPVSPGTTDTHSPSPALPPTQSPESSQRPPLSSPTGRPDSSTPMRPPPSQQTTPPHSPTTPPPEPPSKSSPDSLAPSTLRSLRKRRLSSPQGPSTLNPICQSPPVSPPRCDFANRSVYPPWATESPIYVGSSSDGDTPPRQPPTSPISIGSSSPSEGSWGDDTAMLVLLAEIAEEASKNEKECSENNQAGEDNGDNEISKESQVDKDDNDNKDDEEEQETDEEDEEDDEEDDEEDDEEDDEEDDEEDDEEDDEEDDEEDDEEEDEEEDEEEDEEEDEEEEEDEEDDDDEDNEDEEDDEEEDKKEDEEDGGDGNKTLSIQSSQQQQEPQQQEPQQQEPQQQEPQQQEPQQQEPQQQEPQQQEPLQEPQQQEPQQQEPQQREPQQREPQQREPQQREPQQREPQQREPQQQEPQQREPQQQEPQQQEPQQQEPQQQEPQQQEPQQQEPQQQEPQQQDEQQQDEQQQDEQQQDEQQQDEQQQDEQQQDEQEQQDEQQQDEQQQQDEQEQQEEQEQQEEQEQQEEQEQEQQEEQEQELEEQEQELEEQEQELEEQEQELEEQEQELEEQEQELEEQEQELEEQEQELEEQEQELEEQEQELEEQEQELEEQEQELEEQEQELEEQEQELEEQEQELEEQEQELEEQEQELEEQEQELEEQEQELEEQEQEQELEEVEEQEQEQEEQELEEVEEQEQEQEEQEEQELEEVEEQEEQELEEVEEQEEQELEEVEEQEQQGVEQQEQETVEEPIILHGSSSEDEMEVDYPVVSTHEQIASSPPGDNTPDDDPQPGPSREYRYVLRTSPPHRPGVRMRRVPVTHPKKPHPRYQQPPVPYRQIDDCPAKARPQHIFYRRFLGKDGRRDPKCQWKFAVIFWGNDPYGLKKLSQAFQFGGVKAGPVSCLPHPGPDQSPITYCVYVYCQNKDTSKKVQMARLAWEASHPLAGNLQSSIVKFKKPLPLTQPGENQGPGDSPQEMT
# [3] = target: Dual specificity tyrosine-phosphorylation-regulated kinase 1A (Rattus norvegicus, UniProt Q63470); format: biochemical, Homo sapiens
# HEK293 [4] = assay: membrane integrity loss in HEK cells – cell-based, fluorescence, cytotoxicity control for IDE activator project, dose response (AID 588440); format: functional; conditions: Homo sapiens;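 note: cytotoxicity by LDH release measuring loss of membrane integrity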
# CHO = CHO cell viability loss, potency – luminescence, cytotoxicity control for TLR9-MyD88 binding inhibitor project, dose response (AID 588339); format: functional, cell-based, hamster; conditions: Cricetulus griseus;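 note: CHO cells stably coexpressing TLR9 and MyD88 fusions from primary screen; compound exposure lasted 48 hours before viability readout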
# [5] = target: UDP-galactopyranose mutase (Mycobacterium tuberculosis, UniProt P9WIQ1); assay: Inhibitors of Mycobacterium tuberculosis UDP-galactopyranose mutase (UGM) enzyme Measured in Biochemical System Using Plate Reader - 2105-02_Inhibitor_Dose_CherryPick_Activity. [Related pubchem assays (depositor defined):AID504439]
# HEK293 [6] = assay: optical interference in Abeta FP readout, dose response, artefact control for IDE activator project, biochemical, fluorescence polarization (AID 588442); format: functional, cell-based; conditions: Homo sapiens
# Keap1/Nrf2 = Keap1/Nrf2 (Homo sapiens, UniProt Q14145); assay: disruptors of Keap1 binding to Nrf2 peptide – biochemical, fluorescence polarization, cherry-picked samples, dose response (AID 588683)
# Insulin-degrading enzyme [7] = target: T2, Insulin-degrading enzyme; assay: recombinant IDE activation, cell-free – biochemical, fluorescence polarization, counter-screen for IDE activator project, dose response (AID 588681)
# Sequence of Beta Lactamase (Q932Y6 whole entry): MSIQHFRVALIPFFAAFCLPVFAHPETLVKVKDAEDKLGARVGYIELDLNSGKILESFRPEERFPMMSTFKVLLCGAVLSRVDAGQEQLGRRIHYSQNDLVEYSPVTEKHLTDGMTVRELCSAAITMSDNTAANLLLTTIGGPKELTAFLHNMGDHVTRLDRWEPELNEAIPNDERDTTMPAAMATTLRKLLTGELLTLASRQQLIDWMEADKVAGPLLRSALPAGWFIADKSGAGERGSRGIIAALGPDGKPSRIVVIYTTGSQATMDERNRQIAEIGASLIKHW
# Sequence of Large T antigen (P03070 whole entry): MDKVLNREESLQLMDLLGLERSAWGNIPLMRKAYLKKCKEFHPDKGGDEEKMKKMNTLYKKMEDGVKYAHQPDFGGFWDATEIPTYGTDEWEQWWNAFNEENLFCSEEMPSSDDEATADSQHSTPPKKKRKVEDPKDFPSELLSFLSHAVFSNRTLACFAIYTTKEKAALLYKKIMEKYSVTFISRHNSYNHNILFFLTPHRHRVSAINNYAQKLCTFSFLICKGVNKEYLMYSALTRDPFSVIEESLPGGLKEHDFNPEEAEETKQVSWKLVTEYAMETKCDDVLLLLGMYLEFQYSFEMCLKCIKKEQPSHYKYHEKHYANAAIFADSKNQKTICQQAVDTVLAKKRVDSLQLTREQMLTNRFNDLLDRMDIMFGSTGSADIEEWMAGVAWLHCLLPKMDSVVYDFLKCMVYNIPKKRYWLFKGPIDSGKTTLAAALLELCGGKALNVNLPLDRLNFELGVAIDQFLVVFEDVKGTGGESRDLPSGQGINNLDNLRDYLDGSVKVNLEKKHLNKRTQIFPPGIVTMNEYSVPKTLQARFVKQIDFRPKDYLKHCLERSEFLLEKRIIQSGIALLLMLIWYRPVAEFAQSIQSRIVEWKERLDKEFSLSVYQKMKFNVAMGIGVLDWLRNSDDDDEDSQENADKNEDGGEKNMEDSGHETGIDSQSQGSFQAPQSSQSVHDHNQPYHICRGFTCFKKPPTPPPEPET
# Sequence of UDP-galactopyranose mutase (P9WIQ1 whole entry): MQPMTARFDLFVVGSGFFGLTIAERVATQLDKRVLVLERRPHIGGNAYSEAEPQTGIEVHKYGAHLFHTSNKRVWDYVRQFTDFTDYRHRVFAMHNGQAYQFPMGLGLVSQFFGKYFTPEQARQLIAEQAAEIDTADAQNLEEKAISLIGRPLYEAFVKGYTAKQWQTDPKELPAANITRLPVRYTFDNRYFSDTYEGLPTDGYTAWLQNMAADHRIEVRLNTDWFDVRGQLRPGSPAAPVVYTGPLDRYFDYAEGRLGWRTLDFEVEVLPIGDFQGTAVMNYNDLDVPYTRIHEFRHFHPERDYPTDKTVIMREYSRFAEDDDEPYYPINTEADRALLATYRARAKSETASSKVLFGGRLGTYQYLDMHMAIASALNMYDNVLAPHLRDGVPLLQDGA
# Sequence of Keap1/Nrf2 (Q16236 whole entry): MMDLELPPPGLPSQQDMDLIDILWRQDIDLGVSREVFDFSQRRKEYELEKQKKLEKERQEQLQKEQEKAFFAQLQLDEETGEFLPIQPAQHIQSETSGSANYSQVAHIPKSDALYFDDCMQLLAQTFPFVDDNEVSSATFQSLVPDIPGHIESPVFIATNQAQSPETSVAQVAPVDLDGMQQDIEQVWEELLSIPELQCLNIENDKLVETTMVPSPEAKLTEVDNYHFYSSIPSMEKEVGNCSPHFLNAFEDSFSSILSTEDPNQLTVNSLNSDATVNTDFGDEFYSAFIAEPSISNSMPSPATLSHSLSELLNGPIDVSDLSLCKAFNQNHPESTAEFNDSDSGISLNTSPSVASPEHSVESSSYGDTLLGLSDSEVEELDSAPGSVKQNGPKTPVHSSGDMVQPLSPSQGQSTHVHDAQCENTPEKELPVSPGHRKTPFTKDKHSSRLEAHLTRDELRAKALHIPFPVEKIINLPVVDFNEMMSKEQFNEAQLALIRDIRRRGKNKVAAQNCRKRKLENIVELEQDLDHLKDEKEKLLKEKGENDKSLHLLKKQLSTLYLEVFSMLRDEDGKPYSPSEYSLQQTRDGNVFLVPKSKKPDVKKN
# Sequence of Keap1/Nrf2 (Q14145 whole entry): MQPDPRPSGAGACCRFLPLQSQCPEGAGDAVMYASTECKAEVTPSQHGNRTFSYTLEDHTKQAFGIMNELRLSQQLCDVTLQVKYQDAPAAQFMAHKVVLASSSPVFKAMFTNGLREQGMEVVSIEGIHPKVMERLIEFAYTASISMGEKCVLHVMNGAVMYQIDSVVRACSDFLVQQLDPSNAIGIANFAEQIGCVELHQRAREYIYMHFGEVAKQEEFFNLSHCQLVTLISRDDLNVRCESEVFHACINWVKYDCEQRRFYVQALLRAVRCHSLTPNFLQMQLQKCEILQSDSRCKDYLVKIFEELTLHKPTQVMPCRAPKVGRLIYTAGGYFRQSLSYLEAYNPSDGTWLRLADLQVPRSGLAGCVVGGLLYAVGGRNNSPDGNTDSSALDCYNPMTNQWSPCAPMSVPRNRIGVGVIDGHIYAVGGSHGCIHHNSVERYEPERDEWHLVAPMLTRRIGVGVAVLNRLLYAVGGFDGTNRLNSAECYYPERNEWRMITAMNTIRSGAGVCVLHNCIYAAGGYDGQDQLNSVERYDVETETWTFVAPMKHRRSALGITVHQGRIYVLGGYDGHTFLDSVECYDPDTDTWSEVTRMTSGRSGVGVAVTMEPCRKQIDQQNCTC
smiles,measurement,setting,value
CC1=NCCc2c1[nH]c1cc(O)ccc21,IC50,[1],8.73 µM (active)
same,EC50,Insulin-degrading enzyme [2],> 54.6 µM (inactive)
same,IC50,Large T antigen,8.18 µM (active)
same,IC50,Beta Lactamase,7.96 µM (active)
same,AC50,ORF 73,1.76 µM (active)
same,AC50,[3],3.13 µM (active)
same,IC50,HEK293 [4],> 89.1 µM (inactive)
same,IC50,CHO,> 49.8 µM (inactive)
same,AC50,[5],5.89 µM (active)
same,EC50,HEK293 [6],> 54.6 µM (inactive)
same,AC50,Keap1/Nrf2,4.36 µM (active)
same,EC50,Insulin-degrading enzyme [7],> 54.6 µM (inactive)
